Experimental data: publication PMC5892879, “Structures of the Mycobacterium tuberculosis GlpX protein (class II fructose-1,6-bisphosphatase): implications for the active oligomeric state, catalytic mechanism and citrate inhibition” (Acta Crystallographica. Section D, Structural Biology, 2018)
Values joined by “and” are separate entries in the source; they are usually repeats but may differ in a detail not shown here. Identical values can stand only once. “Also recorded” adds a separate entry of the source. Like-named read-outs stand apart in the source and are kept apart here.

Legend:
[1] = target: T1, MtFBPaseII (Mycobacterium tuberculosis, UniProt P9WN21); experiment: FBPase activity of wild-type MtFBPaseII, malachite green assay; type: biochemical; settings: for IC50: wild-type MtFBPaseII, malachite green assay, fit of triplicate data, standard error reported; for Effect on MtFBPaseII activity (in words): TCA cycle intermediates tested for inhibitory activity
T1 construct: His-tag (N); made in house
Protocol: The FBPase activity of wild-type MtFBPaseII was measured using the malachite green assay (Bondoc et al., 2017[▸]) in the presence of α-ketoglutarate, citrate, isocitrate, malate, malonate and oxaloacetate. Compounds were tested in triplicate at concentrations of 5000, 3000, 2500, 1300, 630, 310 and 160 µM with positive (no compound) and negative (no enzyme) controls in parallel. Fitting was performed with GraphPad Prism (v.7.0b; GraphPad Software, La Jolla, California, USA). The coupled assay (Bondoc et al., 2017[▸]) was used to obtain kinetic data, which were fitted to a nonlinear Michaelis–Menten equation.

[2] = test system: EcFBPaseI; parameters: method as in Hines et al., 2007; settings: in the presence of 5 µM AMP, ref Hines et al., 2007; cited from earlier work
[3] = IC50 values of compounds against MtFBPaseII
[4] = read-out: IC50 values of compounds against MtFBPaseII

T1 sequence (P9WN21 whole entry): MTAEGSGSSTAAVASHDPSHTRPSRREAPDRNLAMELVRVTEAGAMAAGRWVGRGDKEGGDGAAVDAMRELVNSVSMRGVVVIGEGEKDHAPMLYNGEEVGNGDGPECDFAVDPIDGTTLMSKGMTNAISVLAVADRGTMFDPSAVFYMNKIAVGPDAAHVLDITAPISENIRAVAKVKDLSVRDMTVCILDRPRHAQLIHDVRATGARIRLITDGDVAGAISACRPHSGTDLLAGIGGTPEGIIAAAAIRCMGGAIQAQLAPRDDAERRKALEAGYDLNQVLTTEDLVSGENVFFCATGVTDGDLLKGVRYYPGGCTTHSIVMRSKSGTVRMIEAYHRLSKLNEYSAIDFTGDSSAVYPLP

## O=C(O)CC(O)(CC(=O)O)C(=O)O [Citrate]
[1]; [3]
  IC50: ~2 mM and 2 mM
[2]
  Concentration range resulting in activation of the enzyme: 0.5 to 5 mM

## O=C(O)CC(C(=O)O)C(O)C(=O)O (centres unmarked) [Isocitrate]
[1]
  Effect on MtFBPaseII activity (in words): no effect
[1]; up to a concentration of 5 mM
  Inhibition of MtFBPaseII: did not inhibit; also recorded: did not have any measureable activity

## O=C(O)CC(O)C(=O)O (centres unmarked) [Malate, malate]
[1]; [3]
  IC50: 3.3 ± 0.1 mM

## O=C(O)CC(=O)O [Malonate, malonate]
[1]; MtFBPaseII, Fig. 4
  Concentration with a weak effect on the activity of the enzyme: 3 to 4 mM
[1]; [4]
  IC50: 3.2 ± 0.1 mM

## O=C(O)CC(=O)C(=O)O [Oxaloacetate]
[1]; [3]
  IC50: 6.4 ± 0.5 mM
[1]
  Effect on MtFBPaseII activity (in words): limited effect

## C=C(OP(=O)(O)O)C(=O)O [PEP, phosphoenolpyruvate]
[2]
  Concentration range resulting in activation of the enzyme: 0.5 to 5 mM

## O=C(O)CCC(=O)C(=O)O [α-Ketoglutarate, α-ketoglutarate]
[1]; [4]
  IC50: 3.1 ± 0.2 mM
